Patent US7589089B2, “Inhibitors for GlyT-1” (Hoffmann-La Roche Inc., priority 2006, dated 2009)

Target: T1, mGlyT-1b (Mus musculus, UniProt P28571)
T1 construct: host or cells: Flp-in-CHO
T1 sequence (P28571 1-651 isoform P28571-2): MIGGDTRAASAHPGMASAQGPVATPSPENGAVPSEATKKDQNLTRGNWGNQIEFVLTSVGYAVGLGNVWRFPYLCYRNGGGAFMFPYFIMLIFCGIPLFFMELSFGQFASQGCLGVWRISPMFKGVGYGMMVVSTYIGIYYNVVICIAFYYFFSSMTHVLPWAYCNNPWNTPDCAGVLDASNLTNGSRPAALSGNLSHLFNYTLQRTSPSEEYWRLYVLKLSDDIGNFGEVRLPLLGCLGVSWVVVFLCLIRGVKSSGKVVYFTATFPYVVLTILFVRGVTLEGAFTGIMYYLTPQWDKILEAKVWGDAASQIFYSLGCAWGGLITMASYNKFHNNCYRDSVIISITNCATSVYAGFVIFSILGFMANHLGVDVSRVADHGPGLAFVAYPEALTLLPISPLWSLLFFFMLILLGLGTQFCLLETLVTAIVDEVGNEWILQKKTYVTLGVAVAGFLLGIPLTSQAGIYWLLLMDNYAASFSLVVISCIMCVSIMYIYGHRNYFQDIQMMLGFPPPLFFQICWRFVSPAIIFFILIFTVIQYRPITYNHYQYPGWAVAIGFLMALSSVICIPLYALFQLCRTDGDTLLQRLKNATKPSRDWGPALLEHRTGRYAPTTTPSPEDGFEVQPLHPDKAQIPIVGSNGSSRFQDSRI
Test: Glycine Uptake Inhibition Assay (mGlyT-1b)
Format: cell-based
Experimental: DMEM complete medium: Nutrient mixture F-12 (Gibco Life-technologies), fetal bovine serum (FBS) 5%, (Gibco life technologies), Penicillin/Streptomycin 1% (Gibco life technologies), Hygromycin 0.6 mg/ml (Gibco life technologies), Glutamine 1 mM Gibco life technologies)
Uptake buffer (UB): 150 mM NaCl, 10 mM Hepes-Tris, pH 7.4, 1 mM CaCl2, 2.5 mM KCl, 2.5 mM MgSO4, 10 mM (+) D-glucose.
Flp-in™-CHO (Invitrogen Cat n° R758-07) cells stably transfected with mGlyT1b cDNA.
Glycine Uptake Inhibition Assay (mGlyT-1b)
On day 1 mammalian cells, (Flp-in™-CHO), transfected with mGlyT-1b cDNA, were plated at the density of 40,000 cells/well in complete F-12 medium, without hygromycin in 96-well culture plates. On day 2, the medium was aspirated and the cells were washed twice with uptake buffer (UB). The cells were then incubated for 20 min at 22° C. with either (i) no potential competitor, (ii) 10 mM non-radioactive glycine, (iii) a concentration of a potential inhibitor. A range of concentrations of the potential inhibitor was used to generate data for calculating the concentration of inhibitor resulting in 50% of the effect (e.g. IC50, the concentration of the competitor inhibiting glycine uptake of 50%). A solution was then immediately added containing [^3H]-glycine 60 nM (11-16 Ci/mmol) and 25 μM non-radioactive glycine. The plates were incubated with gentle shaking and the reaction was stopped by aspiration of the mixture and washing (three times) with ice-cold UB. The cells were lysed with scintillation liquid, shaken 3 hours and the radioactivity in the cells was counted using a scintillation counter.

Row | SMILES | IC50 [nM]
1 | O=C(CN(Cc1c(F)cccc1F)C(=O)c1ccc(Cl)cc1)Nc1cccc(Cl)c1 [Example 1, 4-Chloro-N-[(3-chloro-phenylcarbamoyl)-methyl]-N-(2,6-difluoro-benzyl)-benzamide] | 52
2 | O=C(CN(Cc1ccc(F)c(F)c1)C(=O)c1ccc(Cl)cc1)Nc1cccc(Cl)c1 [Example 2, 4-Chloro-N-[(3-chloro-phenylcarbamoyl)-methyl]-N-(3,4-difluoro-benzyl)-benzamide] | 265
3 | O=C(CN(Cc1cc(F)cc(F)c1)C(=O)c1ccc(Cl)cc1)Nc1cccc(Cl)c1 [Example 3, 4-Chloro-N-[(3-chloro-phenylcarbamoyl)-methyl]-N-(3,5-difluoro-benzyl)-benzamide] | 184
4 | O=C(CN(Cc1cccc(F)c1F)C(=O)c1ccc(Cl)cc1)Nc1cccc(Cl)c1 [Example 4, 4-Chloro-N-[(3-chloro-phenylcarbamoyl)-methyl]-N-(2,3-difluoro-benzyl)-benzamide] | 74
5 | O=C(CN(Cc1ccc(F)cc1F)C(=O)c1ccc(Cl)cc1)Nc1cccc(Cl)c1 [Example 5, 4-Chloro-N-[(3-chloro-phenylcarbamoyl)-methyl]-N-(2,4-difluoro-benzyl)-benzamide] | 160
6 | O=C(CN(Cc1cc(F)ccc1F)C(=O)c1ccc(Cl)cc1)Nc1cccc(Cl)c1 [Example 6, 4-Chloro-N-[(3-chloro-phenylcarbamoyl)-methyl]-N-(2,5-difluoro-benzyl)-benzamide] | 165
7 | O=C(CN(Cc1cccc(F)c1)C(=O)c1ccc(Cl)cc1)Nc1cccc(Cl)c1 [Example 8, 4-Chloro-N-[(3-chloro-phenylcarbamoyl)-methyl]-N-(3-fluoro-benzyl)-benzamide] | 128
8 | O=C(CN(Cc1ccccc1F)C(=O)c1ccc(Cl)cc1)Nc1cccc(Cl)c1 [Example 9, 4-Chloro-N-[(3-chloro-phenylcarbamoyl)-methyl]-N-(2-fluoro-benzyl)-benzamide] | 74
9 | COc1ccc(C(=O)N(CC(=O)Nc2cccc(Cl)c2)Cc2ccsc2)cc1 [Example 10, N-[(3-Chloro-phenylcarbamoyl)-methyl]-4-methoxy-N-thiophen-3-ylmethyl-benzamide] | 285
10 | COc1ccc(C(=O)N(CC(=O)Nc2cccc(Cl)c2)Cc2c(F)cccc2F)cc1 [Example 11, N-[(3-Chloro-phenylcarbamoyl)-methyl]-N-(2,6-difluoro-benzyl)-4-methoxy-benzamide] | 100
11 | COc1ccc(C(=O)N(CC(=O)Nc2cccc(Cl)c2)Cc2cc(Cl)cc(Cl)c2)cc1 [Example 12, N-[(3-Chloro-phenylcarbamoyl)-methyl]-N-(3,5-dichloro-benzyl)-4-methoxy-benzamide] | 243
12 | COc1ccc(C(=O)N(CC(=O)Nc2cccc(Cl)c2)Cc2cccc(Cl)c2)cc1 [Example 14, N-(3-Chloro-benzyl)-N-[(3-chloro-phenylcarbamoyl)-methyl]-4-methoxy-benzamide] | 24
13 | O=C(CN(Cc1ccccc1)C(=O)c1ccc(F)cc1)Nc1cccc(Cl)c1 [Example 15, N-Benzyl-N-[(3-chloro-phenylcarbamoyl)-methyl]-4-fluoro-benzamide] | 312
14 | O=C(CN(Cc1ccccc1)C(=O)c1ccc(Cl)cc1)Nc1cccc(Cl)c1 [Example 16, N-Benzyl-4-chloro-N-[(3-chloro-phenylcarbamoyl)-methyl]-benzamide] | 156
15 | O=C(CN(Cc1cccs1)C(=O)c1ccc(Cl)cc1)Nc1cccc(Cl)c1 [Example 17, 4-Chloro-N-[(3-chloro-phenylcarbamoyl)-methyl]-N-thiophen-2-ylmethyl-benzamide] | 77
16 | COc1ccc(C(=O)N(CC(=O)Nc2ccc(Cl)c(Cl)c2)Cc2cccs2)cc1 [Example 18, N-[(3,4-Dichloro-phenylcarbamoyl)-methyl]-4-methoxy-N-thiophen-2-ylmethyl-benzamide] | 257
17 | COc1ccc(C(=O)N(CC(=O)Nc2cccc(Cl)c2)Cc2c(Cl)cccc2Cl)cc1 [Example 19, N-[(3-Chloro-phenylcarbamoyl)-methyl]-N-(2,6-dichloro-benzyl)-4-methoxy-benzamide] | 164
